Test system: Culex quinquefasciatus
Assay: K & D Module Repellency Test (Complete Protection Time on volunteer's arm)
Format: in vivo
Conditions: Table 2; for Avg Duration: active package only in water/isopropanol, 100% repellency threshold (CPT)
Excerpt: Efficacy, Duration, and Percent Repellency: The primary method used to assess the efficacy and duration of an insect repellent is the “Arm-in-Cage Test”. The term “duration” as used herein refers to the time between (1) the application of the insect repellent composition and (2) when the subject first drops below the applicable minimum percent repellency threshold. For all of the testing methodologies used herein, the minimum threshold value for “percent repellency” at which the measurement for duration is cutoff is at least (≥) 90% repellency. For some testing methodologies used herein (such as the “Arm-in-Cage Test”), the minimum threshold value for “percent repellency” was 90% repellency. For other testing methodologies used herein (such as the “K & D Module Repellency Test”), the minimum threshold value for percent repellency was 100% repellency. When a duration is measured using a minimum threshold of 100% repellency, the duration may also be referred to as “Complete Protection Time” (CPT).
Another method that may be used to assess the insect repellent efficacy of an insect repellent composition is the “K & D Module Repellency Test.” The insect repellent efficacy is measured using a minimum repellency threshold of 100% repellency, which may also be referred to as the Complete Protection Time (CPT) of an insect repellent composition, which is the time period between the application of the insect repellent composition and the first insect landing.
In the K & D Module Repellency Test the test volunteer used a marker and a template, representing the base and the 3 cm.×4 cm. openings of the K & D module, to mark skin areas of his/her arm which were then treated with different insect repellent compositions at a skin dose of 0.0017 grams/cm^2 against the insect (in this case, Culex quinquefasciatus). The rectangular marks on the volunteer's arm represented where the six cells of the K & D module were positioned on the volunteer's arm. Each cell of the K & D module was filled with ten mated female mosquitoes (Culex quinquefasciatus), and the floor slide was removed from each cell to expose all mosquitoes to all skin treatments. The time between removing the floor slide of each cell and the first mosquito from the cell landing is recorded as the CPT.

| Compound | Avg Duration [h] | Avg Duration (skin dose 0.0017 grams/cm^2) [h] | Duration (Min) (Time of confirmation land) Subject 1 (active package only) [min] | Duration (Min) (Time of confirmation land) Subject 2 (active package only) [min] | Duration (Min) (Time of confirmation land) Subject 3 (active package only) [min] | Duration (Min) (Time of confirmation land) Subject 4 (active package only, Subject 4) [min] |
| --- | --- | --- | --- | --- | --- | --- |
| C=CCc1ccc(O)c(OC)c1 [CE17, eugenol] | 1.7 | 1.67 | 60 | 120 | 120 | 100 |
| CC(C)=CCC/C(C)=C/CO [CE36, geraniol] | 0.8 | 0.833 | 30 | 60 | 60 |  |

— patent US12310372B1, “Water-based insect repellent composition” (priority 2022, dated 2025)
